Measurements published in patent publication US9186385B2 (priority 2009, dated 2015).

Assays:
[1] = tested on: antibody level of hemolysin; assay: Circulating antibody level test on sheep red blood cells (cyclophosphamide immunodeficient mice); type: in vivo; conditions: 0.03 g/kg gastric infusion 7 days; cyclophosphamide-treated mice; OD 540 nm
Procedure: The anti-inflammatory effects of the extract compositions AB and ABC were determined for a series of treatment groups through the circulating antibody level test on sheep red blood cells.
Mice weighing 20-25 g were used in this study. Each group comprised an equal number of male and female animals. Rearing temperature was 23±2° C. The mice were divided into nine groups with 10 rats each: (1) blank control, (2) model control, (3) AB high dosage (15 g/kg), (4) AB mid dosage (7.5 g/kg), (5) AB low dosage (3.75 g/kg), (6) ABC high dosage (13.0 g/kg), (7) ABC mid dosage (7.66 g/kg), (8) ABC low dosage (3.83 g/kg), and (9) levamisole (0.03 g/kg).
The treatments of placebo and extract compositions were administered to each of the mice by gastric infusion for a period of 7 days. On the 2nd, 4th, and 6th day, each mouse, with the exception of those in the blank control group, was injected intraperitoneally with 50 mg/10 ml/kg of cyclophosphamide. Mice in the blank control group were injected intraperitoneally with saline of the same volume. Three days following administration of the final treatment (on day 7), all mice were each immunized by intraperitoneal injections of 0.2 ml of sheep erythrocyte suspension (5% of sheep erythrocyte in saline). […] The absorbance for each supernatant sample was recorded as an index of serum hemolytic level. […]

[2] = tested on: peritoneal macrophage phagocytosis; assay: Peritoneal macrophage phagocytosis in mice (India ink clearance, cyclophosphamide); type: in vivo; conditions: 0.03 g/kg gastric infusion 7 days; cyclophosphamide-treated mice
[3] = tested on: type 1 FM1 influenza virus; assay: Inhibition of the FM1 influenza virus in mice (lung index); type: in vivo, NIH mice
[4] = tested on: permeability of the intraperitoneal blood capillary; assay: Anti-inflammatory effect: permeability of the intraperitoneal blood capillary (acetic acid, Evans blue); type: in vivo, NIH mice; conditions: 0.15 g/kg intragastric once a day, 3 days; acetic acid i.p.; OD 570 nm
Procedure: The anti-inflammatory effects of the extract compositions AB and ABC were determined for a series of treatment groups through measurement of the permeability of the intraperitoneal blood capillary.
NIH mice, weighing 20±2 g, were used in this experiment. […] The rearing temperature was 23±2° C. The mice were randomly divided into nine groups with 10 mice in each group: (1) blank control, (2) model control, (3) AB high dosage (15 g/kg), (4) AB mid dosage (7.5 g/kg), (5) AB low dosage (3.75 g/kg), (6) ABC high dosage (13.0 g/kg), (7) ABC mid dosage (7.66 g/kg), (8) ABC low dosage (3.83 g/kg), and (9) sodium salicylate group (0.15 g/kg).
An acetic normal saline solution was prepared by dissolving about a 0.4% of glacial acetic acid in 50 ml of a normal saline solution.
A 2% Evans blue normal saline solution was prepared by dissolving 2 g of Evans blue in 100 ml of normal saline solution. […]
About twenty minutes following the receipt of the saline injections, each mouse was sacrificed by breaking its cervical vertebrae. […] The supernatant was then collected and the absorbance or optical density (OD) of the supernatant was measured at 570 nm using a spectrophotometer. The experimental data was analyzed. Data was assessed using the t-test to determine statistically significant differences between the results of each of the groups. […]

[5] = tested on: foot swelling induced by carrageenan; assay: Rat foot swelling induced by carrageenan; type: in vivo, Rats; conditions: 0.15 g/kg oral once a day, 4 days
Procedure: The anti-inflammatory effects of the extract compositions AB and ABC were determined for a series of treatment groups through measurement of the foot swelling of rat paws following the administration of carrageenan.
Rats weighing 200±20 g were used in this experiment. Each test group comprised the same number of male and female animals. Rearing temperature was 23±2° C. The rats were divided into eight groups with 10 rats each: (1) model control, (2) AB high dosage (15 g/kg), (3) AB mid dosage (7.5 g/kg), (4) AB low dosage (3.75 g/kg), (5) ABC high dosage (13.0 g/kg), (6) ABC mid dosage (7.66 g/kg), (7) ABC low dosage (3.83 g/kg), (8) sodium salicylate group (0.15 g/kg), […]. There was no blank control in this experiment as there is no swelling of an animal paws where carrageenan is not administered
The method for conducting this experiment followed the guidelines outlined in the Manual on Studies of New Medicines of TCM by the Drug Administration Ministry of Health P.R.C. The method outlined in the manual details the following steps:
1. Draw a clear transverse line situated on the upper and front angles of the left back paw of each rat with a ballpoint pen;
2. Measure the paw volume of each rat;
3. Subcutaneously inject each rat, except those in the blank control group, with a dose of carrageenan (0.05 ml/paw) into the metatarsus of the hindlimb;
4. Orally administer one of the treatments of the AB extract, ABC extract, or sodium salicylate as per the above-noted dosages once a day for a period of 4 days. Rats in the model control group and blank were injected with saline of the same volume;
5. On the morning of the 4th day, one hour following the last administration of the final treatment, subcutaneously inject carrageenan (0.05 ml/paw) into the metatarsus of hindlimb of each rat;
6. Measure the paw volume at each of 1 hour, 2 hours, 3 hours, and 4 hours following the second carrageenan administration; and
7. Calculate the paw swelling percentage for each rat.
The swelling percentage was calculated by the following formula: Swelling percentage=((swelling volumes of rat paw after inflammation−swelling volumes of rat paw before inflammation)/swelling volumes of rat paw before inflammation)×100%
The experimental data was analyzed using the t-test to determine statistically significant differences between the results of each of the groups. There was no swelling in the paws of rats in the blank control group. The anti-inflammatory effects of the AB and ABC herbal extract compositions and sodium salicylate were considered to be effective when P was less than 0.05.

[6] = […], 0.07 g/kg intragastric once a day, 3 days, day 4

## c1ccc([C@H]2CN3CCSC3=N2)cc1 [Levamisole, levamisole]
[1]
  OD value of hemolysin: 0.75 ± 0.006
[2]
  Phagocytic coefficient (K): 0.046 ± 0.007
  Phagocytic coefficient index (α): 6.76 ± 0.43

## NC(=O)c1ncn([C@@H]2O[C@H](CO)[C@@H](O)[C@H]2O)n1 [Ribavirin]
[3]; [6]
  Lung Index: 1.19 ± 0.30 g/g
  Weight: 14.94 ± 1.64 g
[3]; mouse, in vivo
  The rate of inhibition of lung index: 32.38%

## O=C([O-])c1ccccc1O.[Na+] [Sodium salicylate, sodium salicylate]
[4]
  OD value of haemolysin in serum: 0.305 ± 0.060
[5]; 1 h after carrageenan
  Paw swelling: 0.490 ± 0.202 mL
[5]; 2 h after carrageenan
  Paw swelling: 0.405 ± 0.195 mL
[5]; 3 h after carrageenan
  Paw swelling: 0.265 ± 0.153 mL
[5]; 4 h after carrageenan
  Paw swelling: 0.170 ± 0.136 mL
